Experimental data from patent US9802941B2, “Compounds and methods for inhibiting histone demethylases” (Gilead Sciences, Inc., priority 2014, dated 2017).
Read-outs that look alike come from different tables or passages of the source.

How the values were obtained:
Type in all cases: biochemical
[1] = molecular target: T1, KDM4C (JMJD2C) (Homo sapiens, UniProt Q9H3R0); experiment: Histone lysine demethylase AlphaLISA assay, KDM4C
T1 construct: KDM4C; BRIC, Denmark; 1-349; E. coli; host or cells: E. coli
T1 sequence (Q9H3R0 1-349): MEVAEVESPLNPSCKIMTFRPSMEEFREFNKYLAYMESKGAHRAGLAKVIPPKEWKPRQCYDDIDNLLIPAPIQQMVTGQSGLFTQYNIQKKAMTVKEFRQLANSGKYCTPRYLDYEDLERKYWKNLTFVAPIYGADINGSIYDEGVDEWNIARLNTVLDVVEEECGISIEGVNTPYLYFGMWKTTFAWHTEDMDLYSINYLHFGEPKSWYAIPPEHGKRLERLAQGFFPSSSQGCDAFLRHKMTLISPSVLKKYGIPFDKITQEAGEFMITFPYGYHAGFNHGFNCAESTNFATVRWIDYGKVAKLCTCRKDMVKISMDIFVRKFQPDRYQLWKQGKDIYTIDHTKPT
Summary of the method: (§1)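 Buffer: 50 mM Hepes pH 7.4-8.0, Tween-20, 0.1% BSA, 5 μM ammonium iron(II) sulfate. Enzyme + compound (DMSO) 10 min, then substrate at RT; acceptor and streptavidin donor beads added, dark incubation, AlphaLISA read.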

[2] = molecular target: T2, KDM2B (FBXL10) (Homo sapiens, UniProt Q8NHM5); experiment: Histone lysine demethylase AlphaLISA assay, KDM2B
T2 construct: KDM2B; BPS,; 1-650; Bac; purchased BPS Bioscience, US; host or cells: baculovirus system
T2 sequence (Q8NHM5 1-650): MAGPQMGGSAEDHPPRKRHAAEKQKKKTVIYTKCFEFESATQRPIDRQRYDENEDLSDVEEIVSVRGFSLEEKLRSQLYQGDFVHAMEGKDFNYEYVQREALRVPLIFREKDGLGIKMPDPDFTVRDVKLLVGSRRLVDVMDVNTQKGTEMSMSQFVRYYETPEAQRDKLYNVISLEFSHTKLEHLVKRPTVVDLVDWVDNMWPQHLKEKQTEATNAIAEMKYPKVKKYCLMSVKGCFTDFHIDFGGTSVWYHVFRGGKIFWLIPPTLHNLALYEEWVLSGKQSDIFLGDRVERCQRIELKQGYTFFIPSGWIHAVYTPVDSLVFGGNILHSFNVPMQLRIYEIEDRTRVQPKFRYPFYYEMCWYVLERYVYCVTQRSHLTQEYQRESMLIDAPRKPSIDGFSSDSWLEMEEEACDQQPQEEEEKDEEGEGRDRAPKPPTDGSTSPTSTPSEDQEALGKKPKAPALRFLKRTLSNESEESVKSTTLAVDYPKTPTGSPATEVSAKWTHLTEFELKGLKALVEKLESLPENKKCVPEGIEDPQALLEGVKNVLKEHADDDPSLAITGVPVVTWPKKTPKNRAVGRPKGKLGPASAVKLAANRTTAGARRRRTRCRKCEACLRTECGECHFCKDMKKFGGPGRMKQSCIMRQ
Summary of the method: as §1

[3] = molecular target: T3, PHF8 (KDM7) (Homo sapiens, UniProt Q9UPP1); experiment: Histone lysine demethylase AlphaLISA assay, PHF8
T3 construct: KDM7 (PHF8); BRIC; 1-1322; Bac
T3 sequence (Q9UPP1 37-440 limits assumed): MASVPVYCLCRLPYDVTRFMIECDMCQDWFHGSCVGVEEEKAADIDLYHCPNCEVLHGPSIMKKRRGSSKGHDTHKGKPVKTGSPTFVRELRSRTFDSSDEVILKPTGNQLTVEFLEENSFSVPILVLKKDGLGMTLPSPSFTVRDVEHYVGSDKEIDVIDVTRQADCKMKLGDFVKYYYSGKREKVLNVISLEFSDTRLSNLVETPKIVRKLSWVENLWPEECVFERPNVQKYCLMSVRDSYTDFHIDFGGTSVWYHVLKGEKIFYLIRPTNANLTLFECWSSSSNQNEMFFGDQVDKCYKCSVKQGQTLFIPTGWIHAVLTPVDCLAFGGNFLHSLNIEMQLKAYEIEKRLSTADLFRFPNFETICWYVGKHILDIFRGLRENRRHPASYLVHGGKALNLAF
Summary of the method: as §1

[4] = molecular target: T4, KDM6A (UTX) (Homo sapiens, UniProt O15550); experiment: Histone lysine demethylase AlphaLISA assay, KDM6A
T4 construct: KDM6A (UTX); BRIC; 919-1401; E. coli; host or cells: E. coli
T4 sequence (O15550 919-1401): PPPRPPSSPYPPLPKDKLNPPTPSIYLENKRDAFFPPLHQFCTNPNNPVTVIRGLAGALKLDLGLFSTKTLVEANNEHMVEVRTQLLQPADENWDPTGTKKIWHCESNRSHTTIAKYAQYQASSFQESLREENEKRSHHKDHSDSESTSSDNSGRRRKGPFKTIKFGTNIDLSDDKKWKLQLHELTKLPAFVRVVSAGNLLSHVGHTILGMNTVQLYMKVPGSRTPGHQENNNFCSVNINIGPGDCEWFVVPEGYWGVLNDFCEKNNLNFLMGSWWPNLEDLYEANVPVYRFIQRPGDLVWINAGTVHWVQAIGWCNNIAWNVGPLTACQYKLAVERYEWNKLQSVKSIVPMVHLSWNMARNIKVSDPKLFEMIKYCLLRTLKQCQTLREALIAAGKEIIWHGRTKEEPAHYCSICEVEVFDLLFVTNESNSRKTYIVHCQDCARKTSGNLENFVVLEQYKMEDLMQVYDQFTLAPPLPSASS
Description: The compounds of the application, or a pharmaceutically acceptable salt, or solvate, or prodrug thereof, are tested in an in vitro AlphaLISA assay. Enzymes are dissolved in enzyme buffer and incubated before they are added to DMSO solutions of compounds of the application, or a pharmaceutically acceptable salt, or solvate, or prodrug thereof, in enzyme buffer. The reaction mixture is then incubated for an additional period of time before substrate solution is added and then the resulting mixture again incubated. Acceptor beads and suspended Epigenetic Buffer from stock are added and the suspension is again incubated before a suspension of streptavidin donor beads in Epigenetic Buffer is added. After an additional period of incubation, the plates are read.
The ability of compounds of the application to inhibit the histone lysine demethylase activity in vitro of different enzymes was determined.
The reaction mixture was incubated for another 10 minutes before 5 μL of substrate solution was added and the resulting mixture was then incubated at room temperature. […] After incubation at room temperature in the dark, the plates were read.
Enzyme Buffer: 50 mM Hepes (pH 7.4-8.0), 0.003-0.01% Tween-20, 0.1% BSA; 5 μM (NH4)2Fe(SO4)2.

[5] = molecular target: T5, KDM5B (PLU-1) (Homo sapiens, UniProt Q9UGL1); experiment: Histone lysine demethylase AlphaLISA assay, KDM5B
T5 construct: BRIC; 1-809; E. coli; host or cells: E. coli
T5 sequence (Q9UGL1 1-809): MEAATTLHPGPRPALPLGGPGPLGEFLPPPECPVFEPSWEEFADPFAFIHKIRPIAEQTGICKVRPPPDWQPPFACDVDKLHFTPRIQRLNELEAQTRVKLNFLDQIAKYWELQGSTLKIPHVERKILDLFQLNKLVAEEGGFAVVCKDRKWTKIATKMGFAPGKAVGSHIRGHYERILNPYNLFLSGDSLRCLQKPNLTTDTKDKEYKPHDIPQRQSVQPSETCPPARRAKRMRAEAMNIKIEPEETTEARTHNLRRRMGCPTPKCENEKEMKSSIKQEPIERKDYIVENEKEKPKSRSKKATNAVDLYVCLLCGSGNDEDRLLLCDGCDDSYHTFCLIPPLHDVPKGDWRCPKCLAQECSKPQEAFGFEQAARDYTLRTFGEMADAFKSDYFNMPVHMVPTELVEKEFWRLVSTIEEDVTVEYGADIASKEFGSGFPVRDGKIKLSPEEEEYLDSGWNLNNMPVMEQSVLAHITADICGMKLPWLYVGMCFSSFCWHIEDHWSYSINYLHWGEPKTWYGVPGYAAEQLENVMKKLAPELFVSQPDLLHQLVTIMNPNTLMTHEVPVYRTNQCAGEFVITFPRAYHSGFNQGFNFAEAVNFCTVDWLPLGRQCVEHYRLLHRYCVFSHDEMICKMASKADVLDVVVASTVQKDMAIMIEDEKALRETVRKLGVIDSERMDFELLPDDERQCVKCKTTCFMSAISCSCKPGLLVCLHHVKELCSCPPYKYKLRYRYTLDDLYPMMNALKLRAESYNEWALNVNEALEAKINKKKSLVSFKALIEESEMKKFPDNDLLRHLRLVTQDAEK
Summary of the method: as §1

[6] = AlphaLISA assay, read-out: HDME Inhibition KDM4C (IC50)
[7] = AlphaLISA, in vitro, read-out: HDME Inhibition KDM4C
[8] = AlphaLISA, in vitro, read-out: HDME Inhibition KDM2B
[9] = AlphaLISA, in vitro, read-out: HDME Inhibition PHF8
[10] = AlphaLISA assay, read-out: HDME Inhibition KDM6A (IC50)
[11] = AlphaLISA, in vitro, read-out: HDME Inhibition KDM6A
[12] = AlphaLISA assay, read-out: HDME Inhibition KDM5B (IC50)
[13] = AlphaLISA, in vitro, read-out: HDME Inhibition KDM5B
[14] = AlphaLISA assay, read-out: HDME Inhibition KDM2B (IC50)
[15] = AlphaLISA assay, read-out: HDME Inhibition PHF8 (IC50)

Cc1cc(C(=O)O)cc(CNCc2nccn2CCC(C)C)n1 [Compound 18, 2-methyl-6-[({[1-(3-methylbutyl)-1H-imidazol-2-yl]methyl}amino)methyl]pyridine-4-carboxylic acid]
IC50 [1, 6]: > 10 µM
IC50 [1, 7]: > 10 µM
IC50 [2, 8]: 3.93 µM
IC50 [3, 9]: 3.03 µM
IC50 [4, 10]: > 10 µM
IC50 [4, 11]: > 10 µM
IC50 [5, 12]: > 10 µM
IC50 [5, 13]: > 10 µM

CC#Cc1cc(C(=O)O)cc(CNCc2nccn2Cc2ccc(F)cc2)n1 [Compound 6, 2-{[({1-[(4-fluorophenyl)methyl]-1H-imidazol-2-yl}methyl)amino]methyl}-6-(prop-1-yn-1-yl)pyridine-4-carboxylic acid]
IC50 [1, 6]: > 10 µM
IC50 [1, 7]: > 10 µM
IC50 [2, 8]: 0.708 µM
IC50 [3, 9]: 0.353 µM
IC50 [4, 10]: > 10 µM
IC50 [4, 11]: > 10 µM
IC50 [5]: 3.35 µM

COc1ccc(CCn2ccnc2CNCc2cc(C(=O)O)cc(C)n2)cc1OC [Compound 22, 2-{[({1-[2-(3,4-dimethoxyphenyl)ethyl]-1H-imidazol-2-yl}methyl)amino]methyl}-6-methylpyridine-4-carboxylic acid]
IC50 [1, 6]: > 10 µM
IC50 [1, 7]: > 10 µM
IC50 [2, 14]: > 10 µM
IC50 [2, 8]: > 10 µM
IC50 [3, 15]: > 10 µM
IC50 [3, 9]: > 10 µM
IC50 [4, 10]: > 10 µM
IC50 [4, 11]: > 10 µM
IC50 [5, 12]: > 10 µM
IC50 [5, 13]: > 10 µM

Cc1cc(C(=O)O)cc(CNCc2ncc(C3CCC3)n2Cc2ccc(F)cc2)n1 [Compound 39, 2-{[({5-cyclobutyl-1-[(4-fluorophenyl)methyl]-1H-imidazol-2-yl}methyl)amino]methyl}-6-methyl pyridine-4-carboxylic acid]
IC50 [1, 6]: > 10 µM
IC50 [1, 7]: > 10 µM
IC50 [2, 8]: 0.155 µM
IC50 [3, 9]: 0.472 µM
IC50 [4, 10]: > 10 µM
IC50 [4, 11]: > 10 µM
IC50 [5, 12]: > 10 µM
IC50 [5, 13]: > 10 µM

C/C=C/c1cc(C(=O)O)cc(CNCc2nccn2Cc2ccc(F)cc2)n1 [Compound 5, 2-{[({1-[(4-fluorophenyl)methyl]-1H-imidazol-2-yl}methyl)amino]methyl}-6-[(1E)-prop-1-en-1-yl]pyridine-4-carboxylic acid]
IC50 [1, 6]: > 10 µM
IC50 [1, 7]: > 10 µM
IC50 [2, 8]: 1.6 µM
IC50 [3, 9]: 3.76 µM
IC50 [4, 10]: > 10 µM
IC50 [4, 11]: > 10 µM
IC50 [5, 12]: > 10 µM
IC50 [5, 13]: > 10 µM

Cc1cc(C(=O)O)cc(CNC2CCCc3cccnc32)n1 (stereo not shown) [Compound 19, 2-methyl-6-{[(5,6,7,8-tetrahydroquinolin-8-yl)amino]methyl}pyridine-4-carboxylic acid]
IC50 [1, 6]: > 10 µM
IC50 [1, 7]: > 10 µM
IC50 [2, 8]: 1.15 µM
IC50 [3, 9]: 0.89 µM
IC50 [4, 10]: > 10 µM
IC50 [4, 11]: > 10 µM
IC50 [5, 13]: 0.348 µM

CCc1cc(C(=O)O)cc(CNCc2nccn2Cc2ccc(F)cc2)n1 [Compound 13, 2-ethyl-6-{[({1-[(4-fluorophenyl)methyl]-1H-imidazol-2-yl}methyl)amino]methyl}pyridine-4-carboxylic acid]
IC50 [1, 6]: > 10 µM
IC50 [1, 7]: > 10 µM
IC50 [2, 8]: 2.27 µM
IC50 [3, 9]: 5.78 µM
IC50 [4, 10]: > 10 µM
IC50 [4, 11]: > 10 µM
IC50 [5, 12]: > 10 µM
IC50 [5, 13]: > 10 µM

Cc1cc(C(=O)O)cc(CNCc2nc3c(n2Cc2ccc(F)cc2)CCC3)n1 [Compound 25, 2-{[({1-[(4-fluorophenyl)methyl]-1H,4H,5H,6H-cyclopenta[d]imidazol-2-yl}methyl)amino]methyl}-6-methylpyridine-4-carboxylic acid]
IC50 [1, 6]: > 10 µM
IC50 [1, 7]: > 10 µM
IC50 [2, 8]: 1.13 µM
IC50 [3, 9]: 1.21 µM
IC50 [4, 10]: > 10 µM
IC50 [4, 11]: > 10 µM
IC50 [5, 12]: > 10 µM
IC50 [5, 13]: > 10 µM

C=Cc1cc(C(=O)O)cc(CNCc2nccn2Cc2ccc(F)cc2)n1 [Compound 12, 2-ethenyl-6-{[({1-[(4-fluorophenyl)methyl]-1H-imidazol-2-yl}methyl)amino]methyl}pyridine-4-carboxylic acid]
IC50 [1, 6]: > 10 µM
IC50 [1, 7]: > 10 µM
IC50 [2, 8]: 1.6 µM
IC50 [3, 15]: > 10 µM
IC50 [3, 9]: > 10 µM
IC50 [4, 10]: > 10 µM
IC50 [4, 11]: > 10 µM
IC50 [5]: 3.76 µM

CCCC(C)c1cnc(CNCc2cc(C(=O)O)cc(C)n2)n1Cc1ccc(F)cc1 (stereo not shown) [Compound 10, 2-{[({1-[(4-fluorophenyl)methyl]-5-(pentan-2-yl)-1H-imidazole-2-yl}methyl)amino]methyl}-6-methylpyridine-4-carboxylic acid]
IC50 [1, 7]: 1.37 µM
IC50 [2, 14]: > 10 µM
IC50 [2, 8]: > 10 µM
IC50 [3, 15]: > 10 µM
IC50 [3, 9]: > 10 µM
IC50 [4, 10]: > 10 µM
IC50 [4, 11]: > 10 µM
IC50 [5]: 1.28 µM

Cc1cc(C(=O)O)cc(CN[C@H]2CCc3cccnc32)n1 [Compound 7, 2-({[(7S)-5H,6H,7H-cyclopenta[b]pyridin-7-yl]amino}methyl)-6-methylpyridine-4-carboxylic acid]
IC50 [1, 6]: > 10 µM
IC50 [1, 7]: > 10 µM
IC50 [2, 8]: 7.1 µM
IC50 [3, 15]: > 10 µM
IC50 [3, 9]: > 10 µM
IC50 [4, 10]: > 10 µM
IC50 [4, 11]: > 10 µM
IC50 [5, 13]: 1.23 µM

CCCCCCCc1cccnc1CCNCc1cc(C(=O)O)cc(C)n1 [Compound 21, 2-({[2-(3-heptylpyridin-2-yl)ethyl]amino}methyl)-6-methylpyridine-4-carboxylic acid]
IC50 [1, 6]: > 10 µM
IC50 [1, 7]: > 10 µM
IC50 [2, 8]: 5.35 µM
IC50 [3, 15]: > 10 µM
IC50 [3, 9]: > 10 µM
IC50 [4, 10]: > 10 µM
IC50 [4, 11]: > 10 µM
IC50 [5, 12]: > 10 µM
IC50 [5, 13]: > 10 µM
